pKd: −log10 of the molar value. Bridge positions count the residues as written; N and C are the ends. Square brackets hold non-standard residues; d marks the D form. Peptide text beside a SMILES is read from it. * marks the point of attachment. Biotin = O=C1N[C@H]2[C@H](CS[C@H]2CCCCC(=O)*)N1; Tyr(3-I) = N[C@@H](Cc1ccc(O)c(I)c1)C(=O)O; Ahx = NCCCCCC(=O)O
Legend:
[1] = target: SRIF receptor; test: Scatchard analysis of binding of [125I]-labelled SRIF analogs to GH4 C1 membranes; set-up: species or system rat; details: GH4 C1 membranes (FIG. 2), read-out: dissociation constant (KD)
Description: 1. Standard Binding Assays--Binding assays are done in a binding buffer containing 50 mM HEPES (pH 7.4), 0.5% BSA and 5 mM MgCl2. The standard assay for [^125 I]SRIF analog binding to GH4 C1 membranes, done in 96 well microtiter plates (Dynataech Immulon II Removawell plates), is carried out as follows: 1. Radioligand is diluted in binding buffer+ PMSF/Baci to the desired cpm per vol. of 50 μl and then 50 μl aliquots are added to the wells. For non-specific binding samples, 5 μl of 40 μM cold S14 is also added per well. 2. Binding is initiated by adding 150 μl per well of membrane diluted to the desired concentration (10-30 ug membrane protein/well) in binding buffer+ PMSF/Baci. Plates are then covered with Linbro mylar plate sealers (Flow Labs) and placed on a Dynatech Microshaker II and binding is allowed to proceed at room temperature for 1-2 hours. Binding is stopped by centrifuging the plate for 15 minutes at 2,000×g. The supernatants are dumped off and membrane pellets washed once by addition of 200 μl of ice cold binding buffer, brief shaking and recentrifugation. Finally the individual wells are placed in 12×75 mm tubes and counted in an LKB Gammamaster counter (78% efficiency). Specific binding by this method is identical to that measured when free ligand is removed by rapid (3-5 seconds) filtration and washing on polyethyleneimine-coated glass fiber filters.
Because Bio-C6-S14, Bio-C12-S14 and Bio-S28 all contain tyrosine residues, it is possible to prepare their [^125 I] labelled analogs and carry out Scatchard analyses of their binding affinities relative to [^125 I]Tyr11-S14 (FIG. 2). As shown in the figure, the [^125 I]-labelled peptides fall in the same order of potency as their non-labelled forms. The dissociation constants (KDs) and relative binding affinities are [^125 I]Tyr11-S14 (0.1 nM)>[^125 I]Bio-S28 (0.2 nM)>[^125I]Bio-6C-S14 (0.3 nM)>[^125 I]Bio-12C-S14 (0.4 nM).

[2] = target: T1, Immobilized Streptavidin (Streptomyces avidinii, UniProt P22629); test: Binding of [125I]-labelled biotinyl-SRIFs (solubilized R:L complex) to immobilized streptavidin; details: for Initial CPM: 100 ul of initial 100,000 x g supernatant containing soluble R:L complex; for CPM (non-bound), 1 hour: 100 ul supernatant after 1 hour incubation with SA-agarose; for CPM (non-bound), 1 hour / CPM (non-bound), 3 hours: 4-10 C; for CPM (non-bound), 3 hours: 100 ul supernatant after 3 hours incubation with SA-agarose; for % Binding of Radioligand to SA-Agarose, 1 hour, % Bound: 1 hour incubation with SA-agarose; for % Binding of Radioligand to SA-Agarose, 3 hours, % Bound: 3 hours incubation with SA-agarose
T1 construct: purchased Pierce Chemical Co
T1 sequence (P22629 25-183): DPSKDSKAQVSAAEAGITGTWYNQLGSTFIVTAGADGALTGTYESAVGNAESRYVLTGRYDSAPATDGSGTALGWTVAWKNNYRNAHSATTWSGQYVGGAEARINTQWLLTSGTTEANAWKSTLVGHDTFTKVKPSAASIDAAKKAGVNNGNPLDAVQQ
Description: (§1) To compare the three biotinyl-SRIF analogs in terms of binding to streptavidin, the following experiment is done. [^125 I]Bio-SRIF analogs are bound to GH4 C1 membranes as described ("Methods: Receptor Binding Methods, 3"). All radioligands are at a concentration of […] cpm/ml. For each radioligand, a control for non-specific binding was done in the presence of 1 uM cold S14. CPM bound/mg membrane protein after the binding step are as follows: [^125 I]Bio-6C-S14=755,020 (total) and 43,361 (non-specific); [^125 I]Bio-12C=S14=633,134 (total) and 39,538 (nonspecific); [^125 I]Bio-S28=1,065,512 (total) and 35,049 (nonspecific). The membrane pellets are solubilized in solubilization buffer containing 0.15% deoxycholate:lysolecithin and 0.2 mM MgCl2 as described ("Methods: Membrane Solubilization"). […] One ml samples of solubilized membranes are incubated with 0.05 ml vols of streptavidin-agarose at 4°-10° C. on a tube rotator for the times shown. Non-specific binding samples are not done due to the low levels of non-specific binding. At the times shown, the […] beads are spun down and 100 ul samples of supernatant are counted. The cpm are compared to initial cpm in the sample and % binding to SA is calculated from this. Also, it should be noted that binding of cpm from the supernatant is considered to parallel the binding of R:L complex. Several observations confirm that this is a valid assumption.

[3] = test system: SRIF receptor; test: Binding of [125I]Bio-SRIF analogs to GH4 C1 membranes (CPM bound); set-up: species or system rat; details: for CPM bound/mg membrane protein (total): after the binding step; for CPM bound/mg membrane protein (non-specific): in the presence of 1 uM cold S14
Description: 3. Chemical cross-linking of radioligand with receptor is done after a binding step identical to the standard assay. However, the wash step is done with binding buffer minus BSA to reduce the possibility of non-specific cross-linking of radioligand with BSA. The cross-linking step is carried out as described below.
as §1

[4] = test system: SRIF receptor; details: pituitary cells; Kirk et al. 1984; cited from earlier work
[5] = test system: SRIF receptor; test: Tracing of SRIF R:L complex with [125I]Bio-S28: membrane binding and deoxycholate:lysolecithin solubilization; set-up: species or system rat
Description: 1. Binding of biotinyl-SRIF to GH4 C1 membranes. The binding step is carried out as described in Section 4 of "Receptor Binding Methods". Incubations are for 1 hour at room temperature. In the standard purification protocol, the binding incubations contain 10 nM Bio-S29/ [^125 I]Bio-S28 is added as a tracer at levels of 5,000-100,000 cpm per mg of membrane protein. Control incubations contain 10 uM cold S14 to saturate the receptor with non-biotinylated ligand.
2. Solubilization of receptor:ligand complex. This is done as described ("Membrane Solubilization"), with 0.15% deoxycholate:lysolecithin in solubilization buffer containing 0.2 mM MgCl2, to obtain 100,000×g supernatants containing solubilized R:L complex.
(§2) A preparation of SRIF receptor is purified from 17 mg GH4 C1 pituitary cell membranes as described in "Methods: Receptor Purification". Some important features of this experiment are as follows: Two 17 mg samples of membranes are used. Both are incubated with 10^-8 M Bio-S28. However, one sample also receives 10^-5 M non-biotinyl S14 for 2-3 minutes before addition of any Bio-S28. This serves to block binding of Bio-S28 and creates a control to show non-specific binding of proteins to the streptavidin column. Also, each sample receives 1.5×10^8 cpm of [^125 I]Bio-S28 as a tracer. This is added 2-3 minutes before the addition of cold Bio-S28. After a 1-hour binding step, the membranes are washed in binding buffer without BSA and solubilized in solubilization buffer containing 0.15% deoxycholate:lysolecithin and 0.2 mM MgCl2. Each 100,000×g supernatant (17 ml) is incubated with 0.6 ml of streptavidin-agarose for 4 hours at 4°-10° C. The SA-agarose is transferred to a 0.7 cm diameter column, washed and eluted with EDTA/EGTA/GTP-gamma-S as described ("Methods: Receptor Purification").
(§3) Radioligand is followed through the procedure to estimate solubilization of R:L complex and % initial binding of R:L complex to immobilized streptavidin.

[6] = target: T1, Immobilized Streptavidin; test: Tracing of SRIF R:L complex with [125I]Bio-S28: adsorption to streptavidin-agarose during purification; assay type: binding
Description: 3. Adsorption of solubilized R:L complex to streptavidin. Immobilized streptavidin (streptavidin cross-linked to 6% beaded agarose, Pierce Chemical Co.; "SA-agarose") is washed in solubilization buffer and added to the solubilized membranes as 1/30 of the final volume. This mixture is incubated with constant stirring by end-over-end rotation for 4-5 hours at 4°-10° C. Then the mixture is applied to a column and the non-bound material is washed through. Binding of radioligand to SA-agarose is determined by comparing cpm in the 100,000×g supernatant with that in the column effluent after adsorption to SA-agarose. Finally, the column is washed with 12-15 column volumes of solubilization buffer+0.15% deoxycholate:lysolecithin +1/500 (vol/vol) 100×4pase.
as §2, §3
As discussed above, this should approximate the binding of R:L complex to streptavidin.

[7] = 10^-8 M Bio-S28 + 10^-5 M S14 (NSB)

With C[C@H](NC(=O)CCCCCNC(=O)CCCC[C@@H]1SC[C@@H]2NC(=O)N[C@@H]21)C(=O)NCC(=O)N[C@H]1CSSC[C@@H](C(=O)O)NC(=O)[C@H](CO)NC(=O)[C@H]([C@@H](C)O)NC(=O)[C@H](Cc2ccc(O)c(I)c2)NC(=O)[C@H]([C@@H](C)O)NC(=O)[C@H](CCCCN)NC(=O)[C@H](Cc2c[nH]c3ccccc23)NC(=O)[C@H](Cc2ccccc2)NC(=O)[C@H](Cc2ccccc2)NC(=O)[C@H](CC(N)=O)NC(=O)[C@H](CCCCN)NC1=O [[^125 I]Bio-6C-S14] ({Biotin-Ahx}-AGCKNFFWKT[Tyr(3-I)]TSC-OH; disulfide 3-14) the pKd [1] was 9.52, the “Initial CPM” value [2] was 63,490 CPM and the “CPM (non-bound), 1 hour” value [2] was 28,381 CPM. For the same compound, the “CPM (non-bound), 3 hours” value [2] was 16,228 CPM, the “% Binding of Radioligand to SA-Agarose, 1 hour, % Bound” value (shortened to “% Binding … 1 hour, % Bound”) [2] was 55% and the “% Binding of Radioligand to SA-Agarose, 3 hours, % Bound” value (“% Binding … 3 hours, % Bound” for short) [2] was 74%. For the same compound, the “CPM bound/mg membrane protein (total)” value [3] was 755,020 CPM bound/mg membrane protein and the “CPM bound/mg membrane protein (non-specific)” value [3] was 43,361 CPM bound/mg membrane protein.
In the case of pertussis toxin, the “decrease of binding of [125I]Tyr1-SRIF” value [4] is given as “more than 95%”.
With C[C@H](NC(=O)CCCCCNC(=O)CCCCCNC(=O)CCCC[C@@H]1SC[C@@H]2NC(=O)N[C@@H]21)C(=O)NCC(=O)N[C@H]1CSSC[C@@H](C(=O)O)NC(=O)[C@H](CO)NC(=O)[C@H]([C@@H](C)O)NC(=O)[C@H](Cc2ccc(O)c(I)c2)NC(=O)[C@H]([C@@H](C)O)NC(=O)[C@H](CCCCN)NC(=O)[C@H](Cc2c[nH]c3ccccc23)NC(=O)[C@H](Cc2ccccc2)NC(=O)[C@H](Cc2ccccc2)NC(=O)[C@H](CC(N)=O)NC(=O)[C@H](CCCCN)NC1=O [[^125 I]Bio-12C-S14] ({Biotin-Ahx-Ahx}-AGCKNFFWKT[Tyr(3-I)]TSC-OH; disulfide 3-14 (inferred); C-terminus assumed) the pKd [1] was 9.40, the “Initial CPM” value [2] was 54,344 CPM and the “CPM (non-bound), 1 hour” value [2] was 23,391 CPM. For the same compound, the “CPM (non-bound), 3 hours” value [2] was 13,071 CPM, the “% Binding … 1 hour, % Bound” value [2] was 57% and the “% Binding … 3 hours, % Bound” value [2] was 76%. The “CPM bound/mg membrane protein (total)” value [3] was 633,134 CPM bound/mg membrane protein and the “CPM bound/mg membrane protein (non-specific)” value [3] was 39,538 CPM bound/mg membrane protein.
For CC(C)C[C@H](NC(=O)[C@H](C)NC(=O)[C@@H]1CCCN1C(=O)[C@H](CC(N)=O)NC(=O)[C@H](CO)NC(=O)[C@H](CC(N)=O)NC(=O)[C@H](C)NC(=O)[C@H](CO)NC(=O)CCCC[C@@H]1SC[C@@H]2NC(=O)N[C@@H]21)C(=O)N[C@@H](C)C(=O)N1CCC[C@H]1C(=O)N[C@@H](CCCNC(=N)N)C(=O)N[C@@H](CCC(=O)O)C(=O)N[C@@H](CCCNC(=N)N)C(=O)N[C@@H](CCCCN)C(=O)N[C@@H](C)C(=O)NCC(=O)N[C@H]1CSSC[C@@H](C(=O)O)NC(=O)[C@H](CO)NC(=O)[C@H]([C@@H](C)O)NC(=O)[C@H](Cc2ccc(O)c(I)c2)NC(=O)[C@H]([C@@H](C)O)NC(=O)[C@H](CCCCN)NC(=O)[C@@H](Cc2c[nH]c3ccccc23)NC(=O)[C@H](Cc2ccccc2)NC(=O)[C@H](Cc2ccccc2)NC(=O)[C@H](CC(N)=O)NC(=O)[C@H](CCCCN)NC1=O [[^125 I]Bio-S28] (Biotin-SANSNPALAPRERKAGCKNFF[dW]KT[Tyr(3-I)]TSC-OH; disulfide 17-28), the pKd [1] was 9.70, the “CPM Solubilized by Deoxycholate:Lysolecithin (%)” value ([5]; 10^-8 M Bio-S28) was 91% and the “CPM Initially Bound to Membranes” value [5, 7] was 9,316 CPM. The “CPM Solubilized by Deoxycholate:Lysolecithin (%)” value [5, 7] was 73%, the “CPM Initially Bound to Membranes” value ([5]; ligand in binding step 10^-8 M Bio-S28) was 59,132 CPM and the “Initial CPM” value [2] was 92,534 CPM. For the same compound, the “CPM (non-bound), 1 hour” value [2] was 31,645 CPM, the “CPM (non-bound), 3 hours” value [2] was 17,098 CPM and the “% Binding … 1 hour, % Bound” value [2] was 66%. For the same compound, the “% Binding … 3 hours, % Bound” value [2] was 82%, the “CPM bound/mg membrane protein (total)” value [3] was 1,065,512 CPM bound/mg membrane protein and the “CPM bound/mg membrane protein (non-specific)” value [3] was 35,049 CPM bound/mg membrane protein. The “Solubilized CPM Non-Bound to Streptavidin (%)” value ([6]; 10^-8 M Bio-S28) was 28%, the “Solubilized CPM Non-Bound to Streptavidin (%)” value [6, 7] was 15% and the “specifically bound radioligand bound to streptavidin” value ([6]; calculation from Table 2) was 72%.

From patent publication US5331094A, “Purified active somatostatin receptor” (American Cyanamid Company, priority 1992, dated 1994)
